# Measured values: PubChem BioAssay AID1963429 (Molecular Pharmacology Branch, DTP, NCI, 2024)
# System: 126254-015-R-J1-PDC complex spheroid growth, % test/control
# Assay: Anticancer human tumor 126254-015-R-J1-PDC patient-derived soft tissue sarcoma cell line growth inhibition [Asc]
# Conditions: for IC50: curve of first compound; for viability, T/C: stronger effect = lower value
# Method in brief: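 Complex solid-tumor spheroids incorporating human endothelial and mesenchymal stem cells received single agents or combinations over half-log dilution ranges anchored to clinical Cmax.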
# 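Also: spheroids exposed to compound for seven days.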
# 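For viability, T/C in this document: 100% = DMSO vehicle control wells.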
compound,measurement,setting,value
NC(=O)C(=Cn1cnc(-c2cc(C(F)(F)F)cc(C(F)(F)F)c2)n1)c1cncnc1 + CCN1C(C(=O)NC23CCC(C(=O)O)(CC2)CC3)C(c2cccc(Cl)c2F)C2(C(=O)Nc3cc(Cl)ccc32)C12CCCCC2,IC50,second compound 0.03 µM,66.2 nM
same,IC50,second compound 0.0949 µM,49.3 nM
same,IC50,second compound 0.3 µM,43.9 nM
same,IC50,second compound 0.949 µM,49.5 nM
same,IC50,second compound 3 µM,67 nM
same,"viability, T/C","second compound 0.03 µM, first compound 0.000949 µM",93.9%
same,"viability, T/C","second compound 0.03 µM, first compound 0.003 µM",87.4%
same,"viability, T/C","second compound 0.03 µM, first compound 0.00949 µM",79.4%
same,"viability, T/C","second compound 0.03 µM, first compound 0.03 µM",77.8%
same,"viability, T/C","second compound 0.03 µM, first compound 0.0949 µM",37.5%
same,"viability, T/C","second compound 0.03 µM, first compound 0.3 µM",19.6%
same,"viability, T/C","second compound 0.0949 µM, first compound 0.000949 µM",102%
same,"viability, T/C","second compound 0.0949 µM, first compound 0.003 µM",90.5%
same,"viability, T/C","second compound 0.0949 µM, first compound 0.00949 µM",78.6%
same,"viability, T/C","second compound 0.0949 µM, first compound 0.03 µM",61.3%
same,"viability, T/C","second compound 0.0949 µM, first compound 0.0949 µM",35.8%
same,"viability, T/C","second compound 0.0949 µM, first compound 0.3 µM",14%
same,"viability, T/C","second compound 0.3 µM, first compound 0.000949 µM",90.1%
same,"viability, T/C","second compound 0.3 µM, first compound 0.003 µM",102%
same,"viability, T/C","second compound 0.3 µM, first compound 0.00949 µM",83%
same,"viability, T/C","second compound 0.3 µM, first compound 0.03 µM",53.1%
same,"viability, T/C","second compound 0.3 µM, first compound 0.0949 µM",39.3%
same,"viability, T/C","second compound 0.3 µM, first compound 0.3 µM",17.5%
same,"viability, T/C","second compound 0.949 µM, first compound 0.000949 µM",96.5%
same,"viability, T/C","second compound 0.949 µM, first compound 0.003 µM",87.4%
same,"viability, T/C","second compound 0.949 µM, first compound 0.00949 µM",96.1%
same,"viability, T/C","second compound 0.949 µM, first compound 0.03 µM",64.2%
same,"viability, T/C","second compound 0.949 µM, first compound 0.0949 µM",31.6%
same,"viability, T/C","second compound 0.949 µM, first compound 0.3 µM",21%
same,"viability, T/C","second compound 3 µM, first compound 0.000949 µM",102%
same,"viability, T/C","second compound 3 µM, first compound 0.003 µM",99.3%
same,"viability, T/C","second compound 3 µM, first compound 0.00949 µM",87.7%
same,"viability, T/C","second compound 3 µM, first compound 0.03 µM",70.2%
same,"viability, T/C","second compound 3 µM, first compound 0.0949 µM",41.1%
same,"viability, T/C","second compound 3 µM, first compound 0.3 µM",19.6%
